Test results published in patent US20130303509A1, “NAMPT INHIBITORS” (AbbVie Inc., priority 2012, published 2013).

tested on: PC3 cells; test: NAMPT Cell Proliferation Assay; assay type: cell-based; conditions: Homo sapiens, PC-3, 120 h, 5 days incubation, cell viability by Cell Titer Glo
In short: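 Seeded at 500 cells/well in RPMI with 10% heat-inactivated FBS and left to attach overnight at 37° C, 5% CO2. Compounds were added as 10-fold dilutions […] for 5 days, then viability was read by CellTiter-Glo. IC50s came from sigmoidal fits of percent inhibition.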

First: O=C(Nc1ccc(C2CN(C(=O)c3ccc(F)cc3)C2)cc1)[C@H]1CCN(c2cccnn2)C1 [Example 787, (3S)-N-{4-[1-(4-fluorobenzoyl)azetidin-3-yl]phenyl}-1-(pyridazin-3-yl)pyrrolidine-3-carboxamide]
Second: O=C(Nc1ccc(C2CN(C(=O)c3ccccc3)C2)cc1)[C@H]1CCN(c2cccnn2)C1 [Example 788, (3S)-N-[4-(1-benzoylazetidin-3-yl)phenyl]-1-(pyridazin-3-yl)pyrrolidine-3-carboxamide]
The IC50 of the first is 8.4-fold higher: 63.9 nM for the first, 7.59 nM for the second.

Going from `CC(C)(C)C(=O)N1CC(c2ccc(NC(=O)[C@H]3CCN(c4cccnn4)C3)cc2)C1` [Example 789, (3S)-N-{4-[1-(2,2-dimethylpropanoyl)azetidin-3-yl]phenyl}-1-(pyridazin-3-yl)pyrrolidine-3-carboxamide] to `CC(C)(C)C(=O)N1CCC(c2ccc(NC(=O)[C@@H]3CCN(c4cccnn4)C3)cc2)CC1` [Example 795, (3R)—N-{4-[1-(2,2-dimethylpropanoyl)piperidin-4-yl]phenyl}-1-(pyridazin-3-yl)pyrrolidine-3-carboxamide], the IC50 rises from 28.4 nM to 773 nM (27-fold). The first is the more potent here.

Compared with `O=C(Nc1ccc(C2CN(C(=O)c3cc(F)cc(F)c3)C2)cc1)[C@H]1CCN(c2cccnn2)C1` [Example 790, (3S)-N-{4-[1-(3,5-difluorobenzoyl)azetidin-3-yl]phenyl}-1-(pyridazin-3-yl)pyrrolidine-3-carboxamide], `O=C(Nc1ccc(C2CN(C(=O)c3ccc(F)cc3F)C2)cc1)[C@H]1CCN(c2cccnn2)C1` [Example 792, (3S)-N-{4-[1-(2,4-difluorobenzoyl)azetidin-3-yl]phenyl}-1-(pyridazin-3-yl)pyrrolidine-3-carboxamide] is 8.5-fold lower in IC50: 74.6 nM for the first, 8.8 nM for the second. The second is the more potent here.

First: O=C(Nc1ccc(C2CCN(C(=O)c3ccccc3)CC2)cc1)[C@@H]1CCN(c2cccnn2)C1 [Example 793, (3R)—N-[4-(1-benzoylpiperidin-4-yl)phenyl]-1-(pyridazin-3-yl)pyrrolidine-3-carboxamide]
Second: O=C(Nc1ccc(C2CCN(C(=O)c3ccccc3F)CC2)cc1)[C@@H]1CCN(c2cccnn2)C1 [Example 794, (3R)—N-{4-[1-(2-fluorobenzoyl)piperidin-4-yl]phenyl}-1-(pyridazin-3-yl)pyrrolidine-3-carboxamide]
The IC50 of the first is 1.7-fold higher: 329 nM for the first, 196 nM for the second. The second is the more potent here.

Compared with `O=C(Nc1ccc(OC2CCN(C(=O)C3CCCCC3)CC2)cc1)[C@H]1CCN(c2cccnn2)C1` [Example 796, (3S)—N-(4-{[1-(cyclohexylcarbonyl)piperidin-4-yl]oxy}phenyl)-1-(pyridazin-3-yl)pyrrolidine-3-carboxamide], `CC1CC1C(=O)N1CCC(Oc2ccc(NC(=O)[C@H]3CCN(c4cccnn4)C3)cc2)CC1` (stereo partly drawn) [Example 802, (3S)-N-[4-({1-[(2-methylcyclopropyl)carbonyl]piperidin-4-yl}oxy)phenyl]-1-(pyridazin-3-yl)pyrrolidine-3-carboxamide] is 2.2-fold higher in IC50: 11.7 nM for the first, 26.3 nM for the second.

Going from `O=C(Nc1ccc(OC2CCN(C(=O)c3ccccc3F)CC2)cc1)[C@H]1CCN(c2cccnn2)C1` [Example 797, (3S)-N-(4-{[1-(2-fluorobenzoyl)piperidin-4-yl]oxy}phenyl)-1-(pyridazin-3-yl)pyrrolidine-3-carboxamide] to `O=C(Nc1ccc(OC2CCN(C(=O)c3ccccc3)CC2)cc1)[C@H]1CCN(c2cccnn2)C1` [Example 799, (3S)-N-{4-[(1-benzoylpiperidin-4-yl)oxy]phenyl}-1-(pyridazin-3-yl)pyrrolidine-3-carboxamide], the IC50 rises from 12.6 nM to 25.5 nM (2-fold).

`O=C(Nc1ccc(OC2CCN(C(=O)c3cccc(F)c3)CC2)cc1)[C@H]1CCN(c2cccnn2)C1` [Example 798, (3S)-N-(4-{[1-(3-fluorobenzoyl)piperidin-4-yl]oxy}phenyl)-1-(pyridazin-3-yl)pyrrolidine-3-carboxamide] and `O=C(Nc1ccc(OC2CCN(C(=O)c3ccc(F)cc3)CC2)cc1)[C@H]1CCN(c2cccnn2)C1` [Example 800, (3S)-N-(4-{[1-(4-fluorobenzoyl)piperidin-4-yl]oxy}phenyl)-1-(pyridazin-3-yl)pyrrolidine-3-carboxamide] are within 1.5-fold of each other in IC50: 66.4 nM for the first, 60 nM for the second.

First: CC(C)(C)C(=O)N1CCC(Oc2ccc(NC(=O)[C@H]3CCN(c4cccnn4)C3)cc2)CC1 [Example 801, (3S)-N-(4-{[1-(2,2-dimethylpropanoyl)piperidin-4-yl]oxy}phenyl)-1-(pyridazin-3-yl)pyrrolidine-3-carboxamide]
Second: CC(C)(C)C(=O)N1CCC(c2ccc(NC(=O)C3CN(c4ccc(F)nn4)C3)cc2)CC1 [Example 820, N-{4-[1-(2,2-dimethylpropanoyl)piperidin-4-yl]phenyl}-1-(6-fluoropyridazin-3-yl)azetidine-3-carboxamide]
The IC50 of the first is 3.1-fold lower: 24.6 nM for the first, 75.4 nM for the second. The first is the more potent here.

Compared with `CC(C)(C)Cc1nnc(-c2ccc(NC(=O)C3CN(c4cccnn4)C3)cc2)o1` [Example 803, N-{4-[5-(2,2-dimethylpropyl)-1,3,4-oxadiazol-2-yl]phenyl}-1-(pyridazin-3-yl)azetidine-3-carboxamide], `CC(C)(C)Cc1nc(-c2ccc(NC(=O)C3CN(c4cccnn4)C3)cc2)no1` [Example 806, N-{4-[5-(2,2-dimethylpropyl)-1,2,4-oxadiazol-3-yl]phenyl}-1-(pyridazin-3-yl)azetidine-3-carboxamide] is 1.9-fold higher in IC50: 1.61 nM for the first, 3.13 nM for the second.

Going from `CC(C)(C)Cn1cnc(-c2ccc(NC(=O)C3CN(c4cccnn4)C3)cc2)c1` [Example 804, N-{4-[1-(2,2-dimethylpropyl)-1H-imidazol-4-yl]phenyl}-1-(pyridazin-3-yl)azetidine-3-carboxamide] to `Cn1nc(C2CC2)cc1-c1ccc(NC(=O)C2CN(c3cccnn3)C2)cc1` [Example 805, N-[4-(3-cyclopropyl-1-methyl-1H-pyrazol-5-yl)phenyl]-1-(pyridazin-3-yl)azetidine-3-carboxamide], the IC50 rises from 7.92 nM to 65 nM (8.2-fold). The first is the more potent here.

Compared with `COCCn1nc(C2CC2)cc1-c1ccc(NC(=O)C2CN(c3cccnn3)C2)cc1` [Example 807, N-{4-[3-cyclopropyl-1-(2-methoxyethyl)-1H-pyrazol-5-yl]phenyl}-1-(pyridazin-3-yl)azetidine-3-carboxamide], `O=C(Nc1ccc(-c2cc(C3CC3)nn2CCO)cc1)C1CN(c2cccnn2)C1` [Example 817, N-{4-[3-cyclopropyl-1-(2-hydroxyethyl)-1H-pyrazol-5-yl]phenyl}-1-(pyridazin-3-yl)azetidine-3-carboxamide] is 15-fold higher in IC50: 4.15 nM for the first, 64.1 nM for the second.

Going from `CC(C)(C)OC(=O)N1CCC(c2ccc(C(=O)NC3CN(c4cccnn4)C3)s2)CC1` [Example 808, tert-butyl 4-(5-{[1-(pyridazin-3-yl)azetidin-3-yl]carbamoyl}thiophen-2-yl)piperidine-1-carboxylate] to `Cc1ccccc1C(=O)N1CCC(c2ccc(C(=O)NC3CN(c4cccnn4)C3)s2)CC1` [Example 812, 5-[1-(2-methylbenzoyl)piperidin-4-yl]-N-[1-(pyridazin-3-yl)azetidin-3-yl]thiophene-2-carboxamide], the IC50 falls from 41.1 nM to 10.2 nM (4-fold). The second is the more potent here.

Going from `CC(C)(C)OC(=O)N1CCC(F)(c2ccc(NC(=O)C3CN(c4cccnn4)C3)cc2)CC1` [Example 809, tert-butyl 4-fluoro-4-[4-({[1-(pyridazin-3-yl)azetidin-3-yl]carbonyl}amino)phenyl]piperidine-1-carboxylate] to `CC(C)C(=O)N1CCC(c2ccc(NC(=O)C3CN(c4ccc(F)nn4)C3)cc2)CC1` [Example 821, 1-(6-fluoropyridazin-3-yl)-N-{4-[1-(2-methylpropanoyl)piperidin-4-yl]phenyl}azetidine-3-carboxamide], the IC50 rises from 2.4 nM to 165 nM (69-fold).

First: O=C(NC1CN(c2cccnn2)C1)c1ccc(C2CCN(C(=O)c3ccccc3)CC2)s1 [Example 810, 5-(1-benzoylpiperidin-4-yl)-N-[1-(pyridazin-3-yl)azetidin-3-yl]thiophene-2-carboxamide]
Second: O=C(NC1CN(c2cccnn2)C1)c1ccc(C2CCN(C(=O)c3ccccc3F)CC2)s1 [Example 811, 5-[1-(2-fluorobenzoyl)piperidin-4-yl]-N-[1-(pyridazin-3-yl)azetidin-3-yl]thiophene-2-carboxamide]
The IC50 of the first is 5.6-fold higher: 61.1 nM for the first, 11 nM for the second.

`O=C(NC1CN(c2cccnn2)C1)c1ccc(C2CCN(C(=O)c3ccc(F)cc3F)CC2)s1` [Example 813, 5-[1-(2,4-difluorobenzoyl)piperidin-4-yl]-N-[1-(pyridazin-3-yl)azetidin-3-yl]thiophene-2-carboxamide] and `O=C(NC1CN(c2cccnn2)C1)c1ccc(C2CCN(C(=O)c3cccc(F)c3)CC2)s1` [Example 814, 5-[1-(3-fluorobenzoyl)piperidin-4-yl]-N-[1-(pyridazin-3-yl)azetidin-3-yl]thiophene-2-carboxamide] are within 1.5-fold of each other in IC50: 78.6 nM for the first, 81.9 nM for the second.

`O=C(NC1CN(c2cccnn2)C1)c1ccc(C2CCN(C(=O)c3ccc(F)cc3)CC2)s1` [Example 815, 5-[1-(4-fluorobenzoyl)piperidin-4-yl]-N-[1-(pyridazin-3-yl)azetidin-3-yl]thiophene-2-carboxamide] and `O=C(NC1CN(c2cccnn2)C1)c1ccc(C2CCN(C(=O)c3cc(F)cc(F)c3)CC2)s1` [Example 816, 5-[1-(3,5-difluorobenzoyl)piperidin-4-yl]-N-[1-(pyridazin-3-yl)azetidin-3-yl]thiophene-2-carboxamide] are within 1.5-fold of each other in IC50: 185 nM for the first, 188 nM for the second.

Compared with `O=C(Nc1ccc(C2CCN(C(=O)c3ccccc3)CC2)cc1)C1CN(c2ccc(F)nn2)C1` [Example 818, N-[4-(1-benzoylpiperidin-4-yl)phenyl]-1-(6-fluoropyridazin-3-yl)azetidine-3-carboxamide], `O=C(Nc1ccc(C2CCN(C(=O)c3ccccc3F)CC2)cc1)C1CN(c2ccc(F)nn2)C1` [Example 819, N-{4-[1-(2-fluorobenzoyl)piperidin-4-yl]phenyl}-1-(6-fluoropyridazin-3-yl)azetidine-3-carboxamide] is 3.4-fold lower in IC50: 29.4 nM for the first, 8.56 nM for the second. The second is the more potent here.

In the case of `CCC(CC)C(=O)N1CCC(c2ccc(NC(=O)C3CN(c4ccc(F)nn4)C3)cc2)CC1` [Example 822, N-{4-[1-(2-ethylbutanoyl)piperidin-4-yl]phenyl}-1-(6-fluoropyridazin-3-yl)azetidine-3-carboxamide], the IC50 is reported as 60.5 nM.
